# Source: US20050043369A1, “Bactericidal antimicrobial methods and compositions for use in treating gram positive infections” (Protez Pharmaceuticals Inc., priority 2000, published 2005)
# Where two headings read alike, the source gives them in different places.
# Tests used:
# S. aureus SA 29213 = experiment: 55Fe transport assay (intracellular iron accumulation); assay type: cell-based, Staphylococcus aureus; details: for ^55Fe Accm.: compound at 2 μg/ml, S. aureus SA 29213
# Procedure: Next, investigated was whether INF 401 affects intracellular iron accumulation. An ^55Fe transport assay (modified from Sebulsky, 2000) was used to examine the ability of INF 401 to transport iron inside the cell. Briefly, exponentially growing cells were diluted to OD600 0.1 in LB, incubated with ^55FeCl3 for 30 min at 37° C., washed and counted in scintillation fluid using the tritium channel of a scintillation system. […] However, the presence of INF 401 in either the absence or presence of antibiotic led to a dramatic increase in iron accumulation (209,215 and 231,621 DPM, respectively).
# (§1) Activity of the compound is depicted as the minimal concentration required to kill 99.9% of S. aureus in the presence of 4 μg/ml erythromycin.
# S. aureus strain SA1199 = experiment: Screening and titration of potentiators with erythromycin (4 μg/ml), viability read by transfer to fresh medium; assay type: cell-based, Staphylococcus aureus; details: in the presence of 4 μg/ml erythromycin
# Procedure: In an exemplary screening assay, in order to identify a candidate acyl hydrazide, oxy amide or 8-hydroxy quinoline composition as an antibacterial agent potentiator, the S. aureus strain SA1199 may be used. The procedure for screening is as follows: logarithmically growing S. aureus SA1199 are inoculated to a final OD600 of 0.002 into 150 μl of LB medium containing a bacteriostatic concentration of an antimicrobial agent for that strain, for example, erythromycin (4 μg/ml) at four times the Minimal Inhibitory
# Concentration (MIC). […] In preliminary studies the inventors determined that under these conditions up to 2000 viable cells were transferred after incubation with erythromycin. As confirmed by broth microdilution, at least a 1000-fold reduction in viability was required to see no visible growth after 20 hours. Acyl hydrazide, oxy amide or 8-hydroxy quinoline antibiotic potentiators may be identified as those compounds that increase the bactericidal effect of the erythromycin.
# The macrolide erythromycin was chosen in the initial screen for two reasons: first, its mechanism of inhibition of protein synthesis is well characterized and second, as a macrolide, erythromycin is representative of an expanding class of agents which includes the second most prescribed antibiotic, azithromycin.
# In preliminary studies the inventors determined that under these conditions up to 2000 viable cells were transferred after incubation with erythromycin. As confirmed by broth microdilution, at least a 1000-fold reduction in viability was required to see no visible growth after 20 h.
# Next the activity of the hit compounds was compared by titration of the compounds in the presence of erythromycin at 4 μg/ml as described above.
# as §1
# S. aureus SA1199 [1] = experiment: Checkerboard two-fold broth microdilution, MIC and MBC; assay type: cell-based, Staphylococcus aureus; details: for MBC^b = MBC in the presence of 5 μg/ml of INF 401: plus 5 μg/ml INF 401, unit not given
# Procedure: Checkerboard titration was performed with INF 401 and erythromycin to quantitate the effects of the combination on Staphylococcal growth using two-fold serial broth microdilution. After overnight incubation, cells were transferred to fresh medium, as described above, to determine those combinations that were bactericidal to S. aureus. […] Although not determined according to NCCLS recommended procedures ([…]), the inventors considered this the Minimal Bactericidal Concentration (MBC).
# The inventors next evaluated whether INF 401 was bactericidal in combination with other protein synthesis inhibitors which are bacteriostatic to S. aureus. Checkerboard studies were performed with two-fold dilutions of each antibiotic in combination with INF 401 using the assay described above in Example 2. After overnight incubation the MIC of each antibiotic was determined by visualization of bacterial growth. […] The MBC of each antibiotic was determined as described in Example 2 in the absence or presence of INF 401.
# S. pneumoniae = experiment: Bactericidal activity (MBC) of translational inhibitors with or without INF 401 in S. pneumoniae; assay type: cell-based, Streptococcus pneumoniae; details: antibiotic alone
# Description: It would be desirable that an antibiotic potentiator of the present invention is active not only in S. aureus but also in other bacterial pathogens. The inventors have begun studies to investigate whether INF 401 can also potentiate the activity of translational inhibitors in another Gram positive pathogen, S. pneumoniae.
# S. aureus SA1199 [2] = experiment: Checkerboard two-fold broth microdilution, MIC and MBC; assay type: cell-based, Staphylococcus aureus; details: Table 2, plus 10 μg/ml INF 402, unit not given
# S. aureus (SA1199) = experiment: Time kill studies (CFU counts); assay type: cell-based, Staphylococcus aureus; details: antibiotic 1×MIC + 5 μg/ml INF 401
# Procedure: FIG. 5A, FIG. 5B and FIG. 5C. […]
# The initial inoculum number was determined by plating an appropriate dilution on LB agar plates and determining the number of colony forming units (CFUs). At different time points an aliquot was withdrawn from each tube and cell viability was determined by plating an appropriate dilution and counting CFUs after overnight incubation.
# [3] = test system: S. aureus strain ATTC 29213; experiment: Characterization of killing by INF 401 plus chloramphenicol (viability, morphology, protein, DNA, metal dependence); assay type: cell-based, Staphylococcus aureus; details: chloramphenicol 20 μg/ml or INF 401 2 μg/ml alone
# Procedure: Time kill study of the effect of NF 401 in combination with chloramphenicol. Exponentially growing cells (S. aureus strain 29213) were diluted to OD600 0.1 in LB supplemented with 20 μg/ml of chloramphenicol (Cm) in the presence or absence of INF 401 (2 μg/ml) and incubated with shaking at 37° C. At indicated time points cells were harvested, washed with LB and plated on LB agar plates. Number of colony forming units (CFUs) was determined after overnight incubation.
# Time kill study of the effect of iron on the bactericidal activity of INF 401. S. aureus strain 29213 was grown overnight in iron-limited Staphylococcal Siderophore Detection (SSD) medium (Heinrichs, 1999) supplemented with 2 μM FeCl3, washed with SSD and diluted 1:100 into the fresh medium containing 0, 2 or 50 μm FeCl3. Exponentially growing cells were diluted to OD600 0.01 in the corresponding medium supplemented when indicated with 20 μg/ml of chloramphenicol (Cm) and 2 μg/ml of INF 401. At 0, 1, 2 and 3.5 hours cells were plated in different dilutions to the LB agar plates and number of colony forming units (CFUs) was counted next day.
# S. aureus ATCC 29213 = experiment: MBEC assay system, checkerboard: planktonic MIC and biofilm MBEC; assay type: cell-based, Staphylococcus aureus; details: INF 401 at 0.3 μg/ml where in label
# Procedure: These studies were performed via the method of Dr. Howard Ceri (University of Calgary), who recently developed a method for the routine determination of the antibiotic susceptibility of biofilms. To date, the inventors have tested the effect of the combination of INF 401 on the ability of either clindamycin or rifampin to eradicate S. aureus biofilms in vitro. S. aureus ATCC 29213 was selected for the study as previous studies of this isolate as a biofilm had been conducted and the isolate served as a quality assurance organism for NCCLS standardization of antibiotic testing. Biofilms were formed as previously described for this organism (Ceri et al., 1999) using the MBEC™ assay system. Checkerboard studies were performed with each antibiotic versus INF 401.
# [4] = Table 2, S. aureus SA1199, unit inferred
# [5] = Staphylococcus aureus, Table 1, S. aureus SA1199, antibiotic alone, unit inferred, read-out: MBC^a = MBC in the absence of INF 401
# [6] = Staphylococcus aureus, Table 1, S. aureus SA1199, unit inferred, read-out: MIC
SMILES,^55Fe Accm. (S. aureus SA 29213),Activity (minimal concentration required to kill 99.9% of S. aureus) (S. aureus strain SA1199) [µg/mL],"MBC^b = MBC in the presence of 5 μg/ml of INF 401 (S. aureus SA1199 [1]; Table 1, S. aureus SA1199)",MBC (S. aureus SA1199 [1]; [5]) [µg/mL],MIC (S. aureus SA1199 [1]; [6]) [µg/mL],also measured
O=C(Cc1ccccc1)N/N=C/c1c(O)ccc2ccccc12,"36,941 DPM",0.15,–,–,–,–
O=C(N/N=C/c1c(O)ccc2ccccc12)Nc1ccccc1,"14,400 DPM",0.3,–,–,–,–
COc1ccccc1NC(=O)N/N=C/c1c(O)ccc2ccccc12,"1,900 DPM",>10,–,–,–,–
Cc1cccc(CNC(=O)N/N=C/c2c(O)ccc3ccccc23)c1,"1,500 DPM",>10,–,–,–,–
Cc1ccc(CNC(=O)N/N=C/c2c(O)ccc3ccccc23)cc1,"9,100 DPM",1.25,–,–,–,–
O=C(N[C@H](CO)[C@H](O)c1ccc([N+](=O)[O-])cc1)C(Cl)Cl [Chloramphenicol],–,–,4,–,–,"MIC (S. aureus SA1199 [1]; Staphylococcus aureus, SA1199): 8 µg/mL; MBC (S. aureus SA1199 [1]; Staphylococcus aureus, SA1199, read-out: MBC^a = MBC in the absence of INF 401, Table 1, S. aureus SA1199, antibiotic alone, unit inferred): > 64 µg/mL; MBC (S. aureus SA1199 [1]; Staphylococcus aureus, SA1199, read-out: MBC^a = MBC in the absence of INF 401, Table 2, S. aureus SA1199, antibiotic alone, unit inferred): > 64 µg/mL; MIC (S. aureus SA1199 [1]; [4]): 8 µg/mL; bactericidal concentration in the absence of INF 401 as multiple of MIC (S. pneumoniae): 2 ×MIC; MBC^b = MBC in the presence of 10 μg/ml of INF 402 (S. aureus SA1199 [2]): 8; reduction in cell viability, antibiotic in combination with INF 401 (S. aureus (SA1199)): 3 log10; amount of ^55Fe accumulated by cells, single agent (S. aureus SA 29213; LB, ^55FeCl3 30 min 37° C., chloramphenicol alone or INF 401 in absence of antibiotic): 4,976 DPM; effect of single agent on DNA integrity [3]: did not affect DNA integrity"
[H]/N=C(\N/C(=N/[H])NCCCCCCNC(=N)NC(=N)Nc1ccc(Cl)cc1)Nc1ccc(Cl)cc1 [Chlorhexidine],–,–,1,4,1,–
CCC[C@@H]1C[C@@H](C(=O)N[C@@H]([C@H]2O[C@H](SC)[C@H](O)[C@@H](O)[C@H]2O)[C@H](C)Cl)N(C)C1 [Clindamycin],–,–,0.125,4,0.25,"bactericidal concentration of antibiotic alone as multiple of MIC (S. aureus SA1199 [1]; S. aureus, absence of INF 401): 4 ×MIC; MBC^a = MBC in the absence of INF 401 (S. aureus SA1199 [1]; Table 2, S. aureus SA1199, antibiotic alone, unit inferred): 4 µg/mL; MIC (S. aureus SA1199 [1]; [4]): 0.25 µg/mL; MIC (S. aureus ATCC 29213; Staphylococcus aureus, ATCC29213, planktonic population): < 1 µg/mL; MBEC (S. aureus ATCC 29213; biofilm population): 256 µg/mL; MBC^b = MBC in the presence of 10 μg/ml of INF 402 (S. aureus SA1199 [2]): 2; reduction in cell viability, antibiotic in combination with INF 401 (S. aureus (SA1199)): 3 log10"
N[C@@H]1CON=C1O [Cycloserine],–,–,32,> 256,32,–
